According to patent US9359372B2, “Hexahydrodibenzo[a,g]quinolizine compound, preparation method thereof, pharmaceutical composition and use thereof” (SHANGHAI INSTITUTE OF MATERIA MEDICA, CHINESE ACADEMY OF …, priority 2011, dated 2016):

Tests used:
[1] = according to CN101037436; cited from earlier work
dopamine D1 receptor = dopamine D1 receptor (Macaca mulatta (Rhesus macaque), UniProt O77680); test: Affinity on dopamine D1 receptor, competition with [3H] SCH23390; assay type: binding; design: D1 receptor inhibition ratio (%): concentration or dose not given beside the values; settings: for affinity on dopamine D1 receptor (in words): summary of the tables
Sequence of dopamine D1 receptor (O77680 whole entry): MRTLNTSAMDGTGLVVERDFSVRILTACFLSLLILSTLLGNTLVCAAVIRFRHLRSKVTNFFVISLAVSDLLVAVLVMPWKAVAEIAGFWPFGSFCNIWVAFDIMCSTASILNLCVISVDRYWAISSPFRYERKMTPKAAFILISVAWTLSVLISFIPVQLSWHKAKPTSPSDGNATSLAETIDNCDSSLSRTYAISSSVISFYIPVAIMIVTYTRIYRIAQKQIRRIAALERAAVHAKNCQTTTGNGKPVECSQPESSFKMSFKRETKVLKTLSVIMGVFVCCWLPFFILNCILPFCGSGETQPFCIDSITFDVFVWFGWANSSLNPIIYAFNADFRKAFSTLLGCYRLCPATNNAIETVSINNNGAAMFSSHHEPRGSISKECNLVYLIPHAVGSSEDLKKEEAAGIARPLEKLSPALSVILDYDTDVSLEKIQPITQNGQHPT
Method: (§1) (1). Determination of the Affinity of Hexahydrodibenzo[a,g]Quinolizine Compound of General Formula I and Derivatives Thereof on Dopamine D1, Dopamine D2, 5-HT1A, and 5-HT2A Receptor.
(§2) 1) The Experimental Method
(§3) Different concentrations (10^−5 M-10^−11 M) of the compound of the invention and corresponding isotope receptor ligand as well as receptor protein were loaded into the reaction tube and incubated in 30° C. water bath for 60 minutes. The reaction was terminated in a refrigerator. The reaction mixture was put in a Millipore filter (millipore) cell sample collector, filtered through suction filtration using GF/C glass fiber filter paper, and dried. The resulting sample was placed into 0.5 mL tube. 500 μL liquid scintillation fluid was added and intensity of radioactivity was determined by counting.
(§4) (1) Construction of receptor and materials for cell culture: Escherichia coli. DH5α strain; insect virus transfer vector pVL1393 plasmid; BaculoGold linear Chinese baculovirus DNA, purchased from ParMingen company; mkD1RcDNA; rD2R cDNA; various restriction endonucleases, TaqDNA polymerase, T4 ligase, etc., LB medium; insect cell culture TNM-FH.
(§5) (2) the Experimental Materials for Receptor Binding
(§6) Firstly, the above […] are dissolved in DMSO and then diluted with double distilled water to the appropriate concentration (10^−5 M-10^−11 M).
(§7) (+) Butaclamo purchased from RBI company, GF/C glass fiber filter paper purchased from Whatman Co., scintillation fluid (dopamine D1, D2 receptors)/liposoluble scintillation fluid (5-HT1A, 5-HT2A receptor), Beckman LS-6500 multi-function liquid scintillation counter.

D2 dopamine receptor = D2 dopamine receptor (Rattus norvegicus (Rat), UniProt P61169); test: Affinity on dopamine D2 receptor, competition with [3H] Spiperone; assay type: binding; design: D2 receptor inhibition ratio (%): concentration or dose not given beside the values; settings: for affinity on dopamine D2 receptor (in words): summary of the tables
Sequence of D2 dopamine receptor (P61169 whole entry): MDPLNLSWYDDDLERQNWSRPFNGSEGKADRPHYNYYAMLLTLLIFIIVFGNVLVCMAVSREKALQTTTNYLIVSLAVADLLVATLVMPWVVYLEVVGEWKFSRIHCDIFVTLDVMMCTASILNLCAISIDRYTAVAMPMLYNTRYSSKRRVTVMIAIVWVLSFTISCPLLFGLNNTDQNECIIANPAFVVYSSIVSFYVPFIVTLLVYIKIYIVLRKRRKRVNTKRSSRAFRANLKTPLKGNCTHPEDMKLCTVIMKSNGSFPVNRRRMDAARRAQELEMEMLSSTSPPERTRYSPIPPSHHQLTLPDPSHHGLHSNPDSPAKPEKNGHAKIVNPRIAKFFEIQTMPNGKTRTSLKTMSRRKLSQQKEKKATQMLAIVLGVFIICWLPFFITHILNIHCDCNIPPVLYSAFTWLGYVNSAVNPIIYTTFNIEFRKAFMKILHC
Method: as §1, §2, §3, §4, §5, §6, §7

5-HT1A receptor = 5-HT1A receptor (Homo sapiens (Human), UniProt P08908); test: Affinity on 5-HT1A receptor, competition with [3H] 8-OH-DPAT; assay type: binding
Sequence of 5-HT1A receptor (P08908 whole entry): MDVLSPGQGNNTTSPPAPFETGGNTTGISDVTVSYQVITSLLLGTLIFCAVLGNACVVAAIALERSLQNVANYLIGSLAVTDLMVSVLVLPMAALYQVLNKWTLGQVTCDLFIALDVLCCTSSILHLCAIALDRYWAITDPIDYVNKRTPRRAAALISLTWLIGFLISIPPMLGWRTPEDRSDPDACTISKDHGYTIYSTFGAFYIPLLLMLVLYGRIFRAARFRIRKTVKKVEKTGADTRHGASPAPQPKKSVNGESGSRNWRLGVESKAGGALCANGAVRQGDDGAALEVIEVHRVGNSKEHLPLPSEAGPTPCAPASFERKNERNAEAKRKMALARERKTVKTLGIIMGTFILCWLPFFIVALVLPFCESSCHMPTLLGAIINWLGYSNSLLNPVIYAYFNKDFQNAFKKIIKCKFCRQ
Method: as §1, §2, §3, §5
8-OH-DPAT; 5-HT1A receptor protein expressed in HEK-293 cells;
as §6, §7

5-HT2A receptor = 5-HT2A receptor (Homo sapiens (Human), UniProt P28223); test: Affinity on 5-HT2A receptor, competition with [3H]-Ketanserin; assay type: binding
Sequence of 5-HT2A receptor (P28223 whole entry): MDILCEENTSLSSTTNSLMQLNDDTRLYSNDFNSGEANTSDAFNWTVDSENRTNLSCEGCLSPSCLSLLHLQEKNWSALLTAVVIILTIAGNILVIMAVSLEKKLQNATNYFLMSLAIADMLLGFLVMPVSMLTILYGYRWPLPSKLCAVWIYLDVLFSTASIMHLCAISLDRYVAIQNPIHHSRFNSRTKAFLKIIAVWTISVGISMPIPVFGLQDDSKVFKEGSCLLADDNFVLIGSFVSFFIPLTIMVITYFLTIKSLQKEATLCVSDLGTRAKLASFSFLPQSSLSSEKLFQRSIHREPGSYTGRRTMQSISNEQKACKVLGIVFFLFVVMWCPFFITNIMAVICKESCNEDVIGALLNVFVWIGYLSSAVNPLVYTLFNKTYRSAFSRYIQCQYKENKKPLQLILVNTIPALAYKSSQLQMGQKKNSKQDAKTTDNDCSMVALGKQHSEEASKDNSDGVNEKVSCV
Method: as §1, §2, §3, §5, §6, §7

dopamine D2 receptor [2] = molecular target: T1, dopamine D2 receptor (Homo sapiens (Human), UniProt P14416); test: Inhibition property on dopamine D2 receptor, cAMP detection in CHO cells stably expressing D2 receptor; assay type: cell-based; settings: 10 μM Forskoline and 10 μM dopamine, read-out: D2 receptor Antagonist IC50
T1 sequence (P14416 whole entry, species assumed): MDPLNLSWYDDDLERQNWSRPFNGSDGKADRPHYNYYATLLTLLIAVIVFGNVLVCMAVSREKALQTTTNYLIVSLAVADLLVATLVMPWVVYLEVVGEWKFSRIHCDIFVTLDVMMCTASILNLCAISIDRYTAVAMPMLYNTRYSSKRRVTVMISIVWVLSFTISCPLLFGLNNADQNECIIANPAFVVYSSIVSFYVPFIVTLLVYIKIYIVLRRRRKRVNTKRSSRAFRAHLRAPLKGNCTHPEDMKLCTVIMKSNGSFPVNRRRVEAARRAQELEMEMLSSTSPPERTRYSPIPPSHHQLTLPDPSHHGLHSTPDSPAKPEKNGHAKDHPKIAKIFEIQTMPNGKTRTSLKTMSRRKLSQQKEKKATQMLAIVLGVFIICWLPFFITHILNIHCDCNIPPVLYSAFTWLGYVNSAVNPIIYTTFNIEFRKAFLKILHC
Method: 2. Determination of the Inhibition Property of Hexahydrodibenzo[a,g]Quinolizine Compound of General Formula I and Derivatives Thereof on Dopamine D2 Receptor.
(1) The Experimental Method
Each medicament was dissolved in serum-free F12 culture medium containing 100 μM of IBMX. CHO cells which can stably express D2 receptor were pre-incubated at 37° C. for 10 min, and then 10 μM Forskoline and 10 μM Dopanie were added at the same time to react for 10 min. 100 μL, of pre-cooled 1 M of HClO4 was added and the reaction was terminated at 4° C. for 1 hour. 20 μL of 2 M K2CO3 was added to neutralize the reaction. […] A certain amount of the supernatant was taken for cAMP detection.

D1 dopamine receptors = D1 dopamine receptors (Homo sapiens (Human), UniProt P21728); test: Radioligand binding assay, D1 receptor, HEK293T membrane homogenates; settings: HEK293T membranes, [3H]SCH23390
Sequence of D1 dopamine receptors (P21728 whole entry): as the sequence (O77680 whole entry) above, with I311N counted along it
Method: (§8) The affinity of compounds to D1 and D2 dopamine receptors were determined by competition binding assays. Membrane homogenates of HEK293T cells were stably transfected with D1, or D2 receptors. […] The reaction was started by addition of membranes ([…]) and stopped by rapid filtration through Whatman GF/B glassfiber filter and subsequently washed with cold buffer (50 mM Tris, 5 mM EDTA, pH 7.4) using a Brandel 24-well cell harvester. Scintillation cocktail was added and the radioactivity was determined in a MicroBeta liquid scintillation counter. The IC50 and Ki values were calculated by nonlinear regression (PRISM, Graphpad, San Diego, Calif.) using a sigmoidal function.

dopamine D2 receptor [3] = molecular target: T1, dopamine D2 receptor; test: Radioligand binding assay, D2 receptor, HEK293T membrane homogenates; design: D2 Inhibition (%): concentration or dose not given beside the values; settings: HEK293T membranes, [3H]Spiperone
Method: as §8

D1 receptor = D1 receptor (Homo sapiens (Human), UniProt P21728); test: [35S]GTPγS binding assay for D1 receptor; assay type: biochemical
Sequence of D1 receptor (P21728 whole entry): as the sequence (O77680 whole entry) above, with I311N counted along it

D1 receptor inhibition ratio (%) (dopamine D1 receptor)	IC50 (dopamine D1 receptor) [nM]	Ki (dopamine D1 receptor) [nM]	D2 receptor inhibition ratio (%) (D2 dopamine receptor)	5-HT1A receptor inhibition ratio (%) (5-HT1A receptor)	IC50 (5-HT1A receptor) [nM]	Ki (5-HT1A receptor) [nM]	5-HT2A receptor inhibition ratio (%) (5-HT2A receptor)	IC50 (D2 dopamine receptor) [nM]	Ki (D2 dopamine receptor) [nM]	IC50 (dopamine D2 receptor [2]) [µM]	affinity on dopamine D1 receptor (in words) (dopamine D1 receptor)	affinity on dopamine D2 receptor (in words) (D2 dopamine receptor)	Ki (D1 dopamine receptors) [nM]	D2 Inhibition (%) (dopamine D2 receptor [3])	D1 antagonist Imax % (D1 receptor; [35S]GTPγS binding) [%]	IC50 (D1 receptor; [35S]GTPγS binding, read-out: D1 antagonist IC50) [nM]	D1 receptor antagonistic activity (in words) (D1 receptor; summary of Table 10)	D1 receptor selectivity (in words) (D1 receptor; summary of Table 10)	Compound	oral bioavailability [1] [%]
94.5	684	338	97.4					1160	224	16.2									COc1cc2c(cc1OC)[C@@H]1Cc3cc(C)cc(C)c3CN1CC2 [DC037017, S-(−)-2,3-bimethoxy-9,11-dimethyl-5,8,13,13a-tetrahydro-6H-dibenzo[a,g]quinolizine]	
99.21	49.2	25.2	28.67	95.36	51.5	40.6	37.75				strong affinity	strong affinity							COc1ccc(OC)c2c1C[C@H]1c3cc4c(cc3CCN1C2)OCCO4 [DC037032]	

Second part, the compound before the results:

Compound	D1 receptor inhibition ratio (%) (dopamine D1 receptor)	IC50 (dopamine D1 receptor) [nM]	Ki (dopamine D1 receptor) [nM]	D2 receptor inhibition ratio (%) (D2 dopamine receptor)	5-HT1A receptor inhibition ratio (%) (5-HT1A receptor)	IC50 (5-HT1A receptor) [nM]	Ki (5-HT1A receptor) [nM]	5-HT2A receptor inhibition ratio (%) (5-HT2A receptor)	IC50 (D2 dopamine receptor) [nM]	Ki (D2 dopamine receptor) [nM]	IC50 (dopamine D2 receptor [2]) [µM]	affinity on dopamine D1 receptor (in words) (dopamine D1 receptor)	affinity on dopamine D2 receptor (in words) (D2 dopamine receptor)	Ki (D1 dopamine receptors) [nM]	D2 Inhibition (%) (dopamine D2 receptor [3])	D1 antagonist Imax % (D1 receptor; [35S]GTPγS binding) [%]	IC50 (D1 receptor; [35S]GTPγS binding, read-out: D1 antagonist IC50) [nM]	D1 receptor antagonistic activity (in words) (D1 receptor; summary of Table 10)	D1 receptor selectivity (in words) (D1 receptor; summary of Table 10)	oral bioavailability [1] [%]
COc1cc2c(cc1O)[C@@H]1Cc3ccc(O)c(OC)c3CN1CC2 [l-SPD, l-Stepholidine]																				6.83
COc1cc(OC)c2c(c1CO)C[C@H]1c3cc4c(cc3CCN1C2)OCO4 [DC037077, (S)-2,3-methylenedioxy-9,11-bimethoxy-12-hydroxymethyl-5,8,13,13a-tetrahydro-6H-dibenzo[a,g]quinolizine]	97.33	324	182	41.75	88.63	758	600	45.63												
COc1cc2c(cc1O)[C@@H]1Cc3c(OC)ccc(OC)c3CN1CC2 [DC037030, S-(−)-2-hydroxy-3,9,12-trimethoxy-5,8,13,13a-tetrahydro-6H-dibenzo[a,g]quinolizine]	99.89	7.22	3.7	74.27	80.41	626	493	39.99				strong affinity	strong affinity	3.7 ± 0.26	74.27	86.8 ± 1.6	1900 ± 400	D1 receptor antagonistic activity	good D1 receptor selectivity	
COc1cc2c(cc1OC)[C@@H]1Cc3c(OC)ccc(OC)c3CN1CC2 [DC037008, S-(−)-2,3,9,12-tetramethoxy-5,8,13,13a-tetrahydro-6H-dibenzo[a,g]quinolizine]	101.0	101	50.1	92.8					1730	334	4.03									
COc1cc2c(c(OC)c1)CN1CCc3cc(OC)c(OC)cc3[C@@H]1C2 [DC037075, (S)-2,3,9,11-tetramethoxy-5,8,13,13a-tetrahydro-6H-dibenzo[a,g]quinolizine]	97.88	114	64.1	39.50	90.77	922	730	54.04												
